Assay results published in US9446039B2, “Aminoheteroaryl compounds as MTH1 inhibitors” (CEMM—FORSCHUNGSZENTRUM FÜR MOLEKULARE MEDIZIN GMBH, priority 2012, dated 2016).

Key:
Type in all cases: binding
[1] = biological target: T1, SW480 colon carcinoma cells lysate proteins (Homo sapiens, UniProt P49458); settings: PreyGene SRP9
T1 sequence (P49458 1-86): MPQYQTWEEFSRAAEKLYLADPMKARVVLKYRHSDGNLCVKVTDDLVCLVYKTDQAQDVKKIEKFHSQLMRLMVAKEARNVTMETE

[2] = biological target: SW480 colon carcinoma cells lysate proteins (Homo sapiens, UniProt P18085); settings: PreyGene ARF4
SW480 colon carcinoma cells lysate proteins (Homo sapiens, UniProt P18085), sequence (P18085 whole entry): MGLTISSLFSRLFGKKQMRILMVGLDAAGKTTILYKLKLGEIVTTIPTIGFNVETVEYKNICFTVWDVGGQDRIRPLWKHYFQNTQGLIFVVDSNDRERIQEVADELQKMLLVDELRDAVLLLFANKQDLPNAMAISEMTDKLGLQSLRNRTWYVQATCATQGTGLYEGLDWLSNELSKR

[3] = biological target: T2, SW480 colon carcinoma cells lysate proteins (Homo sapiens, UniProt Q15293); settings: PreyGene RCN1
T2 sequence (Q15293 30-331): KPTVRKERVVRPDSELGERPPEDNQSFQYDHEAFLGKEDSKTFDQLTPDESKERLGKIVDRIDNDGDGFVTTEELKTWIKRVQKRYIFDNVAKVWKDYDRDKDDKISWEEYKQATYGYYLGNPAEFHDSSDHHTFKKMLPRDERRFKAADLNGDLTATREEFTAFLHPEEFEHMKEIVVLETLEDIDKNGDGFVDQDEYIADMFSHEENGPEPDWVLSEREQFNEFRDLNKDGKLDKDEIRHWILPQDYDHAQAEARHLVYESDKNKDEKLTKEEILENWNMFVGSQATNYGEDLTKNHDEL

[4] = biological target: SW480 colon carcinoma cells lysate proteins (Homo sapiens, UniProt Q13885); settings: PreyGene TUBB2A; SW480 cells
SW480 colon carcinoma cells lysate proteins (Homo sapiens, UniProt Q13885), sequence (Q13885 whole entry): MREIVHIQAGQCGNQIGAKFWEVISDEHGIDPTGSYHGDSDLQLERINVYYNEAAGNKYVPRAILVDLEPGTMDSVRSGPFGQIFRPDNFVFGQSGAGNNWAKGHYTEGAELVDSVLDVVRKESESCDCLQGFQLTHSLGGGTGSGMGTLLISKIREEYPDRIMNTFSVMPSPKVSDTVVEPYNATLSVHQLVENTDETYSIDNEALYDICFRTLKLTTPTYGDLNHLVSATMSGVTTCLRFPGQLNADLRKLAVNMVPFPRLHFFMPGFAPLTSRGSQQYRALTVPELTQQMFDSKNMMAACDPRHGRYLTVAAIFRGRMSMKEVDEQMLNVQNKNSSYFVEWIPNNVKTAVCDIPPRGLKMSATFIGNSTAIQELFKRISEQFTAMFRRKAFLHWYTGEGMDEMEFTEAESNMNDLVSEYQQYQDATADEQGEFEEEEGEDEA

[5] = biological target: T3, SW480 colon carcinoma cells lysate proteins (Homo sapiens, UniProt Q7RTS7); settings: PreyGene KRT74; SW480 cells
T3 sequence (Q7RTS7 1-529): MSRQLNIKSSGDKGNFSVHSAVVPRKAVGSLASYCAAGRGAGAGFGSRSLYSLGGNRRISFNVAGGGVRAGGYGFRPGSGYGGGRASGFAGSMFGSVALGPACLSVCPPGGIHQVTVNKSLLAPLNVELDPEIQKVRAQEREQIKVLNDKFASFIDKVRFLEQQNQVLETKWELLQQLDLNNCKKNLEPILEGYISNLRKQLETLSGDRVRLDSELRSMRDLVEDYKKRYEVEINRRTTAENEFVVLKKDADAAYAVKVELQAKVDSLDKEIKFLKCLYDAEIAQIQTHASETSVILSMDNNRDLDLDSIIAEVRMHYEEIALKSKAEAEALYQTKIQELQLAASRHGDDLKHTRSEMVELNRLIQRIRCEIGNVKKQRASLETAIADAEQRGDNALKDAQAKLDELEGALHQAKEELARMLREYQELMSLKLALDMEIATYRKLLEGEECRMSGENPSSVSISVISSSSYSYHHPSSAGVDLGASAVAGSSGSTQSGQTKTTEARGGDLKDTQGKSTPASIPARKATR

[6] = biological target: SW480 colon carcinoma cells lysate proteins (Homo sapiens, UniProt O15372); settings: PreyGene EIF3H
SW480 colon carcinoma cells lysate proteins (Homo sapiens, UniProt O15372), sequence (O15372 whole entry): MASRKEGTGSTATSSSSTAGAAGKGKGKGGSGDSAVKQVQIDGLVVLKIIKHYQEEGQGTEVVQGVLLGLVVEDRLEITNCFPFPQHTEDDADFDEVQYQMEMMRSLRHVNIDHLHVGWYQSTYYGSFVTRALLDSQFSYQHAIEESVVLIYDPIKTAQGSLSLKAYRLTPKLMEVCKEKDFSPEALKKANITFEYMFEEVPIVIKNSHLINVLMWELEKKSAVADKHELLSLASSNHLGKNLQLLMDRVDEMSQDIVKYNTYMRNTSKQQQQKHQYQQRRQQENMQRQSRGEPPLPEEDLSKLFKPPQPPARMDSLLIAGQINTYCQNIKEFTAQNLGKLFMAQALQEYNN

[7] = biological target: T4, SW480 colon carcinoma cells lysate proteins (Homo sapiens, UniProt P55145); settings: PreyGene MANF
T4 sequence (P55145 25-182): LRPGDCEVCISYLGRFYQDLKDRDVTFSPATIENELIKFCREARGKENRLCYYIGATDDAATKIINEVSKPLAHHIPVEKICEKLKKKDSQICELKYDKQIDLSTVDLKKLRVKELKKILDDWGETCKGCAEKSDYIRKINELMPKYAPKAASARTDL

[8] = biological target: SW480 colon carcinoma cells lysate proteins (Homo sapiens, UniProt Q92598); settings: PreyGene HSPH1
SW480 colon carcinoma cells lysate proteins (Homo sapiens, UniProt Q92598), sequence (Q92598 whole entry): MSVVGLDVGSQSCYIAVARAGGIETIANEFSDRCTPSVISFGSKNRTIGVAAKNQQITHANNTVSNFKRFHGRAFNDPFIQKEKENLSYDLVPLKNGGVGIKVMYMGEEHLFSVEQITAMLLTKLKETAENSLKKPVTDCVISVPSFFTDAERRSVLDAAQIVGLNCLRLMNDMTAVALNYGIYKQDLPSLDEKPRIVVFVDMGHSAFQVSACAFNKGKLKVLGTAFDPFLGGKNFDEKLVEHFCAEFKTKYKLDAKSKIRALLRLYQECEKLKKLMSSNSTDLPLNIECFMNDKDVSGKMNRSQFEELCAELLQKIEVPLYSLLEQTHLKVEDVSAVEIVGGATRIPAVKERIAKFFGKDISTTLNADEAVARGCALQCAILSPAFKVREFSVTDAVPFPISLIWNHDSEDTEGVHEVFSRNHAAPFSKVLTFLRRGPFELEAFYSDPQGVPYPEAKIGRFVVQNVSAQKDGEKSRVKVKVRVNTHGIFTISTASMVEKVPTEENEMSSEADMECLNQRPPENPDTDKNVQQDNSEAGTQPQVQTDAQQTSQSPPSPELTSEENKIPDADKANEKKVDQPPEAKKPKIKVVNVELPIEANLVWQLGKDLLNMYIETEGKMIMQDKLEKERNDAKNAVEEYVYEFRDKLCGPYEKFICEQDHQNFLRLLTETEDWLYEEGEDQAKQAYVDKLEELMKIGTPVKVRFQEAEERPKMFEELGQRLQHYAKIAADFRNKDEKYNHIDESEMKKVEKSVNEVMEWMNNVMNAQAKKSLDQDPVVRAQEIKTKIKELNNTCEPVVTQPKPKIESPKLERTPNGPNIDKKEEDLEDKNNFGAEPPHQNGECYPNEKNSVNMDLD

[9] = biological target: SW480 colon carcinoma cells lysate proteins (Homo sapiens, UniProt Q9Y266); settings: PreyGene NUDC; SW480 cells
SW480 colon carcinoma cells lysate proteins (Homo sapiens, UniProt Q9Y266), sequence (Q9Y266 whole entry): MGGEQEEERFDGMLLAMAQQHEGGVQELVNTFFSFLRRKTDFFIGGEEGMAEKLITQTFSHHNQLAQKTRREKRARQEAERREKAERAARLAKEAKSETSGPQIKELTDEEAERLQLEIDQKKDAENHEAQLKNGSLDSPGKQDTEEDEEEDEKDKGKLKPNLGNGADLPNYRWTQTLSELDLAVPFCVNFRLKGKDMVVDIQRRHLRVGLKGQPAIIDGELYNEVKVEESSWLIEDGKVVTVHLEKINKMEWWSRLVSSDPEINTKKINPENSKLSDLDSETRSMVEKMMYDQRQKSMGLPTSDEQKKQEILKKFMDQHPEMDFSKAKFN

[10] = biological target: T5, SW480 colon carcinoma cells lysate proteins (Homo sapiens, UniProt P06454); settings: PreyGene PTMA
T5 sequence (P06454 1-111): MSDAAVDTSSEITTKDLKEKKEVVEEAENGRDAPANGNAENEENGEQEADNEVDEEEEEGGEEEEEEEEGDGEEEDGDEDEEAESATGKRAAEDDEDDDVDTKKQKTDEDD

[11] = biological target: SW480 colon carcinoma cells lysate proteins (Homo sapiens, UniProt P30086); settings: PreyGene PEBP1
SW480 colon carcinoma cells lysate proteins (Homo sapiens, UniProt P30086), sequence (P30086 whole entry): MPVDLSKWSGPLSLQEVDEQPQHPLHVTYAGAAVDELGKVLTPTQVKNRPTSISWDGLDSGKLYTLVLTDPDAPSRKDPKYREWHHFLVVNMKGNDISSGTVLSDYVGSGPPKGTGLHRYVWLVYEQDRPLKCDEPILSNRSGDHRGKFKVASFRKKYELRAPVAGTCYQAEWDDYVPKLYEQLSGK

[12] = biological target: SW480 colon carcinoma cells lysate proteins (Homo sapiens, UniProt Q13576); settings: PreyGene IQGAP2
SW480 colon carcinoma cells lysate proteins (Homo sapiens, UniProt Q13576), sequence (Q13576 whole entry): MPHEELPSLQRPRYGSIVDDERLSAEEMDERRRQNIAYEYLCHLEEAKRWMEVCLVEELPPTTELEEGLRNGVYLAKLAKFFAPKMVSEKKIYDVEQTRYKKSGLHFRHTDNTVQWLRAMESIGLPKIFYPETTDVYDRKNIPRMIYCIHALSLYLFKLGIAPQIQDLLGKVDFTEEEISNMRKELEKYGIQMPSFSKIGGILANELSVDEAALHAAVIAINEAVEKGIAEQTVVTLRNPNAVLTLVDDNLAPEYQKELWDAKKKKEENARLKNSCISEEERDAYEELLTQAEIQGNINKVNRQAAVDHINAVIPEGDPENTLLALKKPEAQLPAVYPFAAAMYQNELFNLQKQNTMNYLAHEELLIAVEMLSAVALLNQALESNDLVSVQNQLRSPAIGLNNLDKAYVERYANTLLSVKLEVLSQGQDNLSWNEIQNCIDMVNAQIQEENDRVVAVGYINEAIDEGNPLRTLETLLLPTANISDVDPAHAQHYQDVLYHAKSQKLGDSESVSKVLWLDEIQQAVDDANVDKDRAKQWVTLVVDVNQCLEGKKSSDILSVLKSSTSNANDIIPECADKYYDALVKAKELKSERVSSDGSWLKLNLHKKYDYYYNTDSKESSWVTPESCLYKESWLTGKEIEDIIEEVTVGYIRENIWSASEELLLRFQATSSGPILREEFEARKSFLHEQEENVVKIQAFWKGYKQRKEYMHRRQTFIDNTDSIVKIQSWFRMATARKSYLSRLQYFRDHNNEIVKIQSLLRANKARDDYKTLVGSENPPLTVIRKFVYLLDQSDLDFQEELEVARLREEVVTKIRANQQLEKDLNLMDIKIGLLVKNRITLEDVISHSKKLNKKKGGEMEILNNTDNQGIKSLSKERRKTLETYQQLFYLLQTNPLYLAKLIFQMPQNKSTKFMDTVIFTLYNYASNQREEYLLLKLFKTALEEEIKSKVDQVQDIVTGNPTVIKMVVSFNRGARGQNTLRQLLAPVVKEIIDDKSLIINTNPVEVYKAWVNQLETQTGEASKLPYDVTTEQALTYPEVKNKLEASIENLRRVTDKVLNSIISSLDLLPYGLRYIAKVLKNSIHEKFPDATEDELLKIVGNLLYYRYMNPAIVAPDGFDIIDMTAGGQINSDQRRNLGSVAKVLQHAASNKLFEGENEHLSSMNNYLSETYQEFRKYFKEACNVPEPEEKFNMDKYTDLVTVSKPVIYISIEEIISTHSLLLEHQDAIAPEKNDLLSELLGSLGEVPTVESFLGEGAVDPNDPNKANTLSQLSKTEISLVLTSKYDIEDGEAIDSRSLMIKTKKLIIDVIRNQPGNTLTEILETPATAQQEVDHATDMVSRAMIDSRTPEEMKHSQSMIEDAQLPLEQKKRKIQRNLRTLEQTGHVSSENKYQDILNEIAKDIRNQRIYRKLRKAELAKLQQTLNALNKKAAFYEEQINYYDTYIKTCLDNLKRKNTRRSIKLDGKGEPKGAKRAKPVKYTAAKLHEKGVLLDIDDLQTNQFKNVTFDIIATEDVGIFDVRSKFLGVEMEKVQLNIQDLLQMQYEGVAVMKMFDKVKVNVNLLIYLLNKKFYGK

SMILES: C[C@H](Oc1cc(-c2cnn(C3CCNCC3)c2)cnc1N)c1c(Cl)ccc(F)c1Cl [(5)-crizotinib]
- AvgP [1]: 0.2561
- SC.Exp. 1-1 [1]: 2
- SC.Exp. 1-2 [1]: 1
- SC.Exp. 2-1 [1]: 0
- SC.Exp. 2-2 [1]: 2
- Sum (SC.Exp.) [1]: 5
- AvgP [2]: 0.352
- SC.Exp. 1-1 [2]: 3
- SC.Exp. 1-2 [2]: 3
- SC.Exp. 2-1 [2]: 0
- SC.Exp. 2-2 [2]: 0
- Sum (SC.Exp.) [2]: 6
- AvgP [3]: 0.4191
- SC.Exp. 1-1 [3]: 4
- SC.Exp. 1-2 [3]: 4
- SC.Exp. 2-1 [3]: 0
- SC.Exp. 2-2 [3]: 0
- Sum (SC.Exp.) [3]: 8
- AvgP [4]: 0
- SC.Exp. 1-1 [4]: 5
- SC.Exp. 1-2 [4]: 4
- SC.Exp. 2-1 [4]: 2
- SC.Exp. 2-2 [4]: 2
- SC.Exp. Sum [4]: 13
- AvgP [5]: 0
- SC.Exp. 1-1 [5]: 1
- SC.Exp. 1-2 [5]: 1
- SC.Exp. 2-1 [5]: 0
- SC.Exp. 2-2 [5]: 0
- SC.Exp. Sum [5]: 2
- AvgP [6]: 0.2043
- SC.Exp. 1-1 [6]: 3
- SC.Exp. 1-2 [6]: 0
- SC.Exp. 2-1 [6]: 0
- SC.Exp. 2-2 [6]: 0
- Sum (SC.Exp.) [6]: 3
- AvgP [7]: 0.3221
- SC.Exp. 1-1 [7]: 2
- SC.Exp. 1-2 [7]: 1
- SC.Exp. 2-1 [7]: 0
- SC.Exp. 2-2 [7]: 0
- Sum (SC.Exp.) [7]: 3
- AvgP [8]: 0.4697
- SC.Exp. 1-1 [8]: 7
- SC.Exp. 1-2 [8]: 5
- SC.Exp. 2-1 [8]: 0
- SC.Exp. 2-2 [8]: 0
- Sum (SC.Exp.) [8]: 12
- AvgP [9]: 0
- SC.Exp. 1-1 [9]: 0
- SC.Exp. 1-2 [9]: 1
- SC.Exp. 2-1 [9]: 0
- SC.Exp. 2-2 [9]: 0
- SC.Exp. Sum [9]: 1
- AvgP [10]: 0.3707
- SC.Exp. 1-1 [10]: 2
- SC.Exp. 1-2 [10]: 2
- SC.Exp. 2-1 [10]: 0
- SC.Exp. 2-2 [10]: 0
- Sum (SC.Exp.) [10]: 4
- AvgP [11]: 0.3266
- SC.Exp. 1-1 [11]: 3
- SC.Exp. 1-2 [11]: 3
- SC.Exp. 2-1 [11]: 0
- SC.Exp. 2-2 [11]: 0
- Sum (SC.Exp.) [11]: 6
- AvgP [12]: 0.4584
- SC.Exp. 1-1 [12]: 9
- SC.Exp. 1-2 [12]: 9
- SC.Exp. 2-1 [12]: 0
- SC.Exp. 2-2 [12]: 0
- Sum (SC.Exp.) [12]: 18
